One assay has as its target T1, MAPKAPK5 (Homo sapiens, UniProt Q8IW41).
T1 sequence (Q8IW41 1-473): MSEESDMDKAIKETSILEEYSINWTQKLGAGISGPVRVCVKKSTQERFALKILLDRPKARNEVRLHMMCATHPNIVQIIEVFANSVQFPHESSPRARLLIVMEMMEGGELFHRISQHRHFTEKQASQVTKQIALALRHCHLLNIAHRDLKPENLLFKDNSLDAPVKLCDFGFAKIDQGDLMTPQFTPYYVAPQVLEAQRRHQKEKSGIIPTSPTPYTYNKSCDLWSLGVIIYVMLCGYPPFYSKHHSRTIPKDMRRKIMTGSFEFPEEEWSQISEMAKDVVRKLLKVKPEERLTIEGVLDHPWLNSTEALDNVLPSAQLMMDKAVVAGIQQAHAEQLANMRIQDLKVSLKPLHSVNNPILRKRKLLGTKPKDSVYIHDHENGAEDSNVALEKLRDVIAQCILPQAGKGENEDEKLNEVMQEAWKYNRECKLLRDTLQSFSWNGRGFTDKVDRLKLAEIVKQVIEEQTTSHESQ
The assay is described as follows: MAPKAP-K5 assay (FlashPlate, 33P-ATP).

Assay [1] has as its system TNFα release by human PBMCs. Nature of the assay: Cytokine (TNFα) release by LPS stimulated human PBMCs, ELISA. The class given is cell-based. The following applies: ELISA of supernatant. How it is done: For the assay PBMCs are seeded at 2.5E6 cells/mL in 160 μL in 96-well plates (Nunc). Serial dilution of the test compounds are made first in DMSO (Sigma) and then diluted 50-fold in M199 medium (Gibco) containing 1% heat-inactivated FBS. Compounds are further 1/10 diluted in the assay plates to obtain final DMSO concentration of 0.2%. Cells are preincubated with the compounds for 1 hr at 37° C., 5% CO2. Then, cells are stimulated with LPS (Escherichia coli serotype 026:B6, Cat. No. L2654, Sigma) that is added in a volume of 20 μL to a final concentration of 1 μg/mL and cells are further cultured for 24 hr. The plates are centrifuged and the supernatant is collected and stored at −80° C. until analysis of appropriate dilutions in ELISAs.
After 4 hr incubation at RT, blocking buffer is removed and plates are washed once with PBST (1×PBS with 0.05% Tween-20 (Sigma)). Then, 40 μL of sample is transferred to the ELISA plates and plates are incubated at 4° C. […] Readout is performed on the Luminoscan Ascent Luminometer (Labsystems) with an integration time of 100 msec delivering raw data (RLU: relative luminescence units). […] Where compounds are tested at 8 concentrations (1/3 serial dilution), EC50-values can be calculated by curve fitting of the means of the PIN data achieved for a compound at each test concentration.
In general terms: In an ELISA, binding on a coated surface is turned into a signal by an enzyme label.

Assay [2] deals with MMP1 expression by activated synovial fibroblasts (RASFs). Nature of the assay: 'MMP assay': MMP1 ELISA on supernatant of complex trigger activated synovial fibroblasts. The class given is cell-based. The following applies: Homo sapiens, Fibroblast, Table 4, 48 hrs. How it is done: A 384-well format ELISA for measurement of MMP1 is developed. Various primary antibodies are tested, as well as various ELISA protocols. […] The antibody is diluted in buffer 40 (1.21 g Tris base (Sigma), 0.58 g NaCl (Calbiochem) and 5 ml 10% NaN3 (Sigma) in 1 L milliQ water and adjusted to pH 8.5). After overnight incubation at 4° C., plates are washed with PBS (80 g NaCl, 2 g KCl (Sigma), 11.5 g Na2HPO4.7H2O and 2 g KH2PO4 in 10 L milliQ; pH 7.4) and blocked with 100 μL/well Casein buffer (2% Casein (VWR International) in PBS). Next day, casein buffer is removed from ELISA plates and replaced by 50 μL/well EC buffer (4 g casein, 2.13 g Na2HPO4 (Sigma), 2 g bovine albumin (Sigma), 0.69 g NaH2PO4.H2O (Sigma), 0.5 g CHAPS (Roche), 23.3 g NaCl, 4 ml 0.5 M EDTA pH 8 (Invitrogen), 5 ml 10% NaN3 in 1 L milliQ and adjusted to pH 7.0). 0.25 mM DTT (Sigma) is added to the thawed samples plates. After removal of the EC buffer, 20 μL of sample is transferred to the ELISA plates. After overnight incubation at 4° C. plates are washed twice with PBS and once with PBST (PBS with 0.05% Tween-20 (Sigma)) and incubated with 35 μL/well biotinylated anti-MMP1 antibody solution (R&D). This secondary antibody is diluted in buffer C (0.82 g NaH2PO4.H2O, 4.82 g Na2HPO4, 46.6 g NaCl, 20 g bovine albumin and 4 mL 0.5M EDTA pH 8 in 2 L milliQ and adjusted to pH 7.0) at a concentration of 5 μg/mL. After 2 h of incubation at RT, plates are washed as described above and incubated with 50 μL/well streptavidin-HRP conjugate (Biosource). Streptavidin-HRP conjugate is diluted in buffer C at a concentration of 0.25 μg/mL. After 45 min, plates are washed as described above and incubated for 5 min with 50 μL/well BM Chem ELISA Substrate (Roche). Readout is performed on the Luminoscan Ascent Luminometer (Labsystems) with an integration time of 200 msec or with an Envision reader (Perkin Elmer).
SFs are seeded at a density of 3000 cells/well in 96 well plates. 24 hrs after seeding, increasing concentrations of dexamethasone are added to the cells. […]

Where [3] appears, read: Table 1, 0.6 μM ATP, 30 minutes room temperature.
Where [4] appears, read: read-out: MAPKAPK5 IC50, Table 1, 0.6 μM ATP, 30 minutes room temperature.

SMILES strings stand for the structures. Read-outs that look alike come from different tables or passages of the source.

Here are results for 13 molecules from patent publication US7915256B2, “Triazolopyrazine compounds useful for the treatment of degenerative and inflammatory diseases” (Galapagos NV, priority 2006, dated 2011).

Protocol for MAPKAPK5: MAPKAP-K5 reactions are performed in FlashPlate format using 0.1 or 0.2 μCi 33P-ATP; 0.6 μM ATP; 1 mU MAPKAP-K5; 3 μM MAPKAP-K5 peptide substrate, incubated at room temperature for 30 minutes.
The MAPKAP-K5 kinase reaction is performed in a 384 well polypropylene plate (Matrix Technologies) and then transferred to a streptavidin-coated 384 well flashplate (Perkin-Elmer).
To wells containing 2 μL test compound or standard inhibitor, 13 μL Enzyme mix or diluent are added using a Hydra (Robbins Scientific).
Reactions are started by addition of 10 μL of [2,5×] substrate cocktail using a Multidrop (Thermo-Labsystems), to give final concentrations in the assay of:
Plates are incubated at room temperature for 30 minutes.
Reactions are terminated by the addition of 25 μL EDTA (50 mM) to each well using a Micro-fill (Biotek).
Reactions are transferred to a streptavidin-coated flashplate using a Zymark robotic system. Plates are incubated for 60 minutes at room temperature.
All wells are washed 3 times with 100 μl phosphate buffered saline using a Tecan plate washer.
Radioactivity is determined by scintillation counting of the flashplate (empty wells) on a Packard TopCount.
Enzyme Mix: • Enzyme • 50 mM Tris Hcl (pH 7.5) • 0.1 mM EGTA • 2 mM DTT • 1 mg/mL BSA
Reaction Buffer: • 50 mM Tris Hcl (pH 7.5) • 0.1 mM EGTA • 10 mM Magnesium acetate • 2 mM DTT

In the case of `NC(=O)c1c(F)cc(-c2cnc(Nc3ccc(N4CCOCC4)cc3)c3ncnn23)cc1F` [Compound 14], the “MAPKAPK5 IC50 (nM)” value on MAPKAPK5 (setting [3]) is “=”.
`Clc1cc(Nc2ncc(-c3cn[nH]c3)n3ncnc23)ccc1N1CCOCC1` [Compound 18]: the “MAPKAPK5 IC50 (nM)” value at MAPKAPK5 (setting [3]) is on record as “=”.
In the case of `NC(=O)c1cc(-c2cnc(Nc3ccc(OCCN4CCOCC4)cc3)c3ncnn23)cs1` [Compound 21, 4-(8-(4-(2-Morpholinoethoxy)phenylamino)-[1,2,4]triazolo[1,5-a]pyrazin-5-yl)thiophene-2-carboxamide], on MAPKAPK5 (setting [4]), the half-inhibitory concentration (IC50) (commonly the midpoint of a concentration-inhibition curve) is 501 to 1000 nM.
For `NC(=O)c1ccc(-c2cnc(Nc3ccc(OCCN4CCOCC4)cc3)c3ncnn23)s1` [Compound 22, 5-(8-(4-(2-Morpholinoethoxy)phenylamino)-[1,2,4]triazolo[1,5-a]pyrazin-5-yl)thiophene-2-carboxamide], the half-inhibitory concentration (IC50) at MAPKAPK5 (setting [4]) is above 1000 nM.
In the case of `CC(C)N1CCN(c2ccc(Nc3ncc(-c4cc(F)c(C(N)=O)c(F)c4)n4ncnc34)cc2)CC1` [Compound 26], on MAPKAPK5 (setting [3]), the “MAPKAPK5 IC50 (nM)” value is reported as “=”.
On to `C[C@@H]1CN(c2ccc(Nc3ncc(-c4csc(C(N)=O)c4)n4ncnc34)cc2)[C@@H](C)CN1C` [Compound 32], for which the EC50 (in general, the concentration giving half of the maximal effect) in assay [1] (Homo sapiens, PBMC, 24 h, Table 5, LPS 1 μg/mL) lay in the range of 101 to 500 nM.
With `NC(=O)c1cc(-c2cnc(Nc3ccc(N4CCN(CC5CC5)CC4)nc3)c3ncnn23)cs1` [Compound 54, 4-{8-[6-(4-[Cyclopropylmethyl]piperazin-1-yl)-pyridin-3-ylamino]-[1,2,4]triazolo[1,5-a]pyrazin-5-yl}thiophene-2-carboxylic acid amide], the EC50 in assay [1] (Table 5, LPS 1 μg/mL, 24 hr, read-out: PBMC EC50) is above 1000 nM.
`O=C(NCc1ccc(O)cc1)c1cccc(Nc2ncc(-c3cn[nH]c3)n3ncnc23)c1` [Compound 131, N-(4-Hydroxybenzyl) 3-[5-(1H-pyrazol-4-yl)-[1,2,4]triazolo[1,5-a]pyrazin-8-ylamino]benzamide] had an EC50 in assay [2] above 1000 nM.
Molecule `O=C(N[C@@H]1CCN(Cc2ccccc2)C1)c1ccc(Nc2ncc(-c3cn[nH]c3)n3ncnc23)cc1` [Compound 147] gave an EC50 in assay [2] above 1000 nM. Besides, the IC50 against MAPKAPK5 lay in the range of 101 to 500 nM.
In turn, `CCN1CCCC1CNC(=O)c1ccc(Nc2ncc(-c3cn[nH]c3)n3ncnc23)cc1` (centres unmarked) [Compound 163] gave an IC50 against MAPKAPK5 of 101 to 500 nM.
The molecule `CN(C)Cc1cc(Nc2ncc(-c3ccc4c(c3)CNC4=O)n3ncnc23)ccc1N1CCNCC1` [Compound 175] returned a 50% inhibitory concentration (IC50) at MAPKAPK5 of 101 to 500 nM.
In turn, `CC(C)N1CCC(c2ccc(Nc3ncc(-c4cnc5c(c4)CNC5=O)n4ncnc34)cc2)CC1` [Compound 190] yielded a half-maximal inhibitory concentration (IC50) at MAPKAPK5 of 101 to 500 nM.
In turn, `O=C(N[C@H]1CCN(Cc2ccccc2)C1)c1ccc(Nc2ncc(-c3cn[nH]c3)n3ncnc23)cc1` [Compound 191] had a concentration giving a half-maximal response (EC50) in assay [2] above 1000 nM.
